Measurements: PubChem BioAssay AID1963442 (Molecular Pharmacology Branch, DTP, NCI, 2024)
pIC50: −log10 of the molar value.

Test system: MPNST complex spheroid with HUVEC/MSC, growth, % test/control
Experiment: Anticancer human tumor MPNST cell line growth inhibition [Asc];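 further: compounds left on spheroids for seven days before reading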
Conditions: for pIC50: curve of first compound; for viability, T/C: stronger effect = lower value
In short: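 Complex spheroids combining tumor cells with HUVEC endothelial cells and human MSCs, at 37 degrees C, 5% CO2; agents tested alone or combined, half-log dilutions from at or near clinical Cmax, or 10 microM if Cmax unknown.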

Question: Which results are given for Cn1ncnc1[C@H]1c2n[nH]c(=O)c3cc(F)cc(c23)N[C@@H]1c1ccc(F)cc1 + CCN1C(C(=O)NC23CCC(C(=O)O)(CC2)CC3)C(c2cccc(Cl)c2F)C2(C(=O)Nc3cc(Cl)ccc32)C12CCCCC2?
Answer: pIC50 (second compound 0.03 µM): 7.33; pIC50 (second compound 0.0949 µM): < 7.00; pIC50 (second compound 0.3 µM): < 7.00; pIC50 (second compound 0.949 µM): < 7.00; pIC50 (second compound 3 µM): < 7.00; viability, T/C (second compound 0.03 µM, first compound 0.000316 µM): 84.6%; viability, T/C (second compound 0.03 µM, first compound 0.001 µM): 82%; viability, T/C (second compound 0.03 µM, first compound 0.00316 µM): 80.2%; viability, T/C (second compound 0.03 µM, first compound 0.01 µM): 65.9%; viability, T/C (second compound 0.03 µM, first compound 0.0316 µM): 54.4%; viability, T/C (second compound 0.03 µM, first compound 0.1 µM): 43.4%; viability, T/C (second compound 0.0949 µM, first compound 0.000316 µM): 106%; viability, T/C (second compound 0.0949 µM, first compound 0.001 µM): 91.9%; viability, T/C (second compound 0.0949 µM, first compound 0.00316 µM): 97.7%; viability, T/C (second compound 0.0949 µM, first compound 0.01 µM): 95.5%; viability, T/C (second compound 0.0949 µM, first compound 0.0316 µM): 74.9%; viability, T/C (second compound 0.0949 µM, first compound 0.1 µM): 52.1%; viability, T/C (second compound 0.3 µM, first compound 0.000316 µM): 106%; viability, T/C (second compound 0.3 µM, first compound 0.001 µM): 92.9%; viability, T/C (second compound 0.3 µM, first compound 0.00316 µM): 88.4%; viability, T/C (second compound 0.3 µM, first compound 0.01 µM): 91.7%; viability, T/C (second compound 0.3 µM, first compound 0.0316 µM): 91.1%; viability, T/C (second compound 0.3 µM, first compound 0.1 µM): 57.7%; viability, T/C (second compound 0.949 µM, first compound 0.000316 µM): 80.2%; viability, T/C (second compound 0.949 µM, first compound 0.001 µM): 109%; viability, T/C (second compound 0.949 µM, first compound 0.00316 µM): 79.8%; viability, T/C (second compound 0.949 µM, first compound 0.01 µM): 90.6%; viability, T/C (second compound 0.949 µM, first compound 0.0316 µM): 81.2%; viability, T/C (second compound 0.949 µM, first compound 0.1 µM): 70.7%; viability, T/C (second compound 3 µM, first compound 0.000316 µM): 97.1%; viability, T/C (second compound 3 µM, first compound 0.001 µM): 94.3%; viability, T/C (second compound 3 µM, first compound 0.00316 µM): 89.8%; viability, T/C (second compound 3 µM, first compound 0.01 µM): 86.6%; viability, T/C (second compound 3 µM, first compound 0.0316 µM): 73.6%; viability, T/C (second compound 3 µM, first compound 0.1 µM): 72.7%

Question: What does the source list for O=C(c1cc(Cc2n[nH]c(=O)c3ccccc23)ccc1F)N1CCN(C(=O)C2CC2)CC1 + CNC(C)C(=O)NC1CN(S(=O)(=O)c2cccc(S(=O)(=O)N3CCC4CCC(C(=O)NC(c5ccccc5)c5ccccc5)N4C(=O)C(NC(=O)C(C)NC)C3)c2)CCC2CCC(C(=O)NC(c3ccccc3)c3ccccc3)N2C1=O?
Answer: pIC50 (second compound 0.00316 µM): > 7.50; pIC50 (second compound 0.01 µM): > 7.50; pIC50 (second compound 0.0316 µM): 5.70; pIC50 (second compound 0.1 µM): 5.61; pIC50 (second compound 0.316 µM): 5.60; pIC50 (second compound 1 µM): 5.47; viability, T/C (second compound 0.00316 µM, first compound 0.0316 µM): 12.7%; viability, T/C (second compound 0.00316 µM, first compound 0.1 µM): 10.7%; viability, T/C (second compound 0.00316 µM, first compound 0.316 µM): 13.4%; viability, T/C (second compound 0.00316 µM, first compound 1 µM): 12.9%; viability, T/C (second compound 0.00316 µM, first compound 3.16 µM): 12.1%; viability, T/C (second compound 0.00316 µM, first compound 10 µM): 13.7%; viability, T/C (second compound 0.01 µM, first compound 0.0316 µM): 41%; viability, T/C (second compound 0.01 µM, first compound 0.1 µM): 36.8%; viability, T/C (second compound 0.01 µM, first compound 0.316 µM): 50.4%; viability, T/C (second compound 0.01 µM, first compound 1 µM): 44.6%; viability, T/C (second compound 0.01 µM, first compound 3.16 µM): 26.4%; viability, T/C (second compound 0.01 µM, first compound 10 µM): 27.4%; viability, T/C (second compound 0.0316 µM, first compound 0.0316 µM): 76.2%; viability, T/C (second compound 0.0316 µM, first compound 0.1 µM): 65.6%; viability, T/C (second compound 0.0316 µM, first compound 0.316 µM): 59.9%; viability, T/C (second compound 0.0316 µM, first compound 1 µM): 64.3%; viability, T/C (second compound 0.0316 µM, first compound 3.16 µM): 40.4%; viability, T/C (second compound 0.0316 µM, first compound 10 µM): 37.7%; viability, T/C (second compound 0.1 µM, first compound 0.0316 µM): 76.5%; viability, T/C (second compound 0.1 µM, first compound 0.1 µM): 85%; viability, T/C (second compound 0.1 µM, first compound 0.316 µM): 82.4%; viability, T/C (second compound 0.1 µM, first compound 1 µM): 79.8%; viability, T/C (second compound 0.1 µM, first compound 3.16 µM): 41.8%; viability, T/C (second compound 0.1 µM, first compound 10 µM): 38.8%; viability, T/C (second compound 0.316 µM, first compound 0.0316 µM): 100%; viability, T/C (second compound 0.316 µM, first compound 0.1 µM): 66%; viability, T/C (second compound 0.316 µM, first compound 0.316 µM): 84.7%; viability, T/C (second compound 0.316 µM, first compound 1 µM): 81.3%; viability, T/C (second compound 0.316 µM, first compound 3.16 µM): 41.8%; viability, T/C (second compound 0.316 µM, first compound 10 µM): 42.4%; viability, T/C (second compound 1 µM, first compound 0.0316 µM): 75.8%; viability, T/C (second compound 1 µM, first compound 0.1 µM): 63.4%; viability, T/C (second compound 1 µM, first compound 0.316 µM): 60%; viability, T/C (second compound 1 µM, first compound 1 µM): 68.2%; viability, T/C (second compound 1 µM, first compound 3.16 µM): 45.3%; viability, T/C (second compound 1 µM, first compound 10 µM): 42%

Question: What does the source list for Cc1nc(N2CCC3(CC2)COC(C)C3N)c(CO)nc1Sc1ccnc(N)c1Cl (configuration not stated) + CCN1C(C(=O)NC23CCC(C(=O)O)(CC2)CC3)C(c2cccc(Cl)c2F)C2(C(=O)Nc3cc(Cl)ccc32)C12CCCCC2?
Answer: pIC50 (second compound 0.03 µM): < 5.52; pIC50 (second compound 0.0949 µM): < 5.52; pIC50 (second compound 0.3 µM): < 5.52; pIC50 (second compound 0.949 µM): < 5.52; pIC50 (second compound 3 µM): < 5.52; viability, T/C (second compound 0.03 µM, first compound 0.00949 µM): 92%; viability, T/C (second compound 0.03 µM, first compound 0.03 µM): 84.1%; viability, T/C (second compound 0.03 µM, first compound 0.0949 µM): 90.7%; viability, T/C (second compound 0.03 µM, first compound 0.3 µM): 87.9%; viability, T/C (second compound 0.03 µM, first compound 0.949 µM): 101%; viability, T/C (second compound 0.03 µM, first compound 3 µM): 75.5%; viability, T/C (second compound 0.0949 µM, first compound 0.00949 µM): 83.8%; viability, T/C (second compound 0.0949 µM, first compound 0.03 µM): 89%; viability, T/C (second compound 0.0949 µM, first compound 0.0949 µM): 92.2%; viability, T/C (second compound 0.0949 µM, first compound 0.3 µM): 82.2%; viability, T/C (second compound 0.0949 µM, first compound 0.949 µM): 75.5%; viability, T/C (second compound 0.0949 µM, first compound 3 µM): 58.3%; viability, T/C (second compound 0.3 µM, first compound 0.00949 µM): 101%; viability, T/C (second compound 0.3 µM, first compound 0.03 µM): 83.6%; viability, T/C (second compound 0.3 µM, first compound 0.0949 µM): 92.8%; viability, T/C (second compound 0.3 µM, first compound 0.3 µM): 77.2%; viability, T/C (second compound 0.3 µM, first compound 0.949 µM): 83.2%; viability, T/C (second compound 0.3 µM, first compound 3 µM): 63.4%; viability, T/C (second compound 0.949 µM, first compound 0.00949 µM): 77.9%; viability, T/C (second compound 0.949 µM, first compound 0.03 µM): 89.9%; viability, T/C (second compound 0.949 µM, first compound 0.0949 µM): 70%; viability, T/C (second compound 0.949 µM, first compound 0.3 µM): 76.7%; viability, T/C (second compound 0.949 µM, first compound 0.949 µM): 68%; viability, T/C (second compound 0.949 µM, first compound 3 µM): 54.4%; viability, T/C (second compound 3 µM, first compound 0.00949 µM): 66.3%; viability, T/C (second compound 3 µM, first compound 0.03 µM): 75.9%; viability, T/C (second compound 3 µM, first compound 0.0949 µM): 72.4%; viability, T/C (second compound 3 µM, first compound 0.3 µM): 67.8%; viability, T/C (second compound 3 µM, first compound 0.949 µM): 52.3%; viability, T/C (second compound 3 µM, first compound 3 µM): 55.8%
